Test results as given in ChEMBL document CHEMBL5126640, “Sanggenon C Suppresses Tumorigenesis of Gastric Cancer by Blocking ERK-Drp1-Mediated Mitochondrial Fission” (J Nat Prod, 2022).
Active and inactive are the calls of the source. The rule behind the calls is not given here.

Tests used:
HGC-27 [1] = experiment: Induction of cell cycle arrest in human HGC-27 cells assessed as accumulation of cells at G0/G1 phase at 8 uM incubated for 24 hrs propidium iodide-A staining-based flow cytometric analysis (reference value: 45.21%); assay type: functional
AGS [2] = experiment: Induction of apoptosis in human AGS cells assessed as early apoptotic cells measured after 24 hrs by AnnexinV-FITC/PI staining based flow cytometry method (reference value: 2%); assay type: functional
HGC-27 [3] = experiment: Induction of apoptosis in human HGC-27 cells assessed as necrotic cells measured after 24 hrs by AnnexinV-FITC/PI staining based flow cytometry method (reference value: 0.1 %); assay type: functional
AGS [4] = experiment: Induction of apoptosis in human AGS cells assessed as necrotic cells at 10 uM measured after 24 hrs by AnnexinV-FITC/PI staining based flowcytometry method (reference value: 0.2%); assay type: functional
AGS [5] = experiment: Inhibition of colony formation of human AGS cells assessed as reduction in colony number at 0 to 10 uM measured after 24 hrs by crystal violet staining assay; assay type: functional, cell-based; details: dose 0-10 µM
HGC-27 [6] = experiment: Induction of apoptosis in human HGC-27 cells assessed as viable cells at 6 uM measured after 24 hrs by AnnexinV-FITC/PI staining based flowcytometry method (reference value: 91.1%); assay type: functional; details: read-out: Activity
HGC-27 [7] = experiment: Induction of cell cycle arrest in human HGC-27 cells assessed as decrease in Cyclin D1 level at 0 to 10 uM by Western blot analysis; assay type: functional, cell-based; details: dose 0-10 µM
AGS [8] = experiment: Induction of mitochondrial dysfunction in human AGS cells assessed as decrease in mitochondrial membrane potential measured after 24 hrs by JC-1 staining based flow cytometry; assay type: functional, cell-based; details: DDE = dose-dependent effect
[9] = Toxicity in nude mouse xenografted with human AGS cells assessed as effect on kidney morphology at 10 to 20 mg/kg, ip administered every other day and monitored every 3 days by Hematoxyin-eosin staining based analysis; assay type: organism-based; details: in vivo, 72 h, dose 10-20 mg/kg, time 3 day
AGS [10] = experiment: Antiproliferative activity against human AGS cells assessed as reduction in cell growth measured after 24 hrs by CCK8 assay; assay type: functional, cell-based
HGC-27 [11] = experiment: Induction of cell cycle arrest in human HGC-27 cells assessed as decrease in CDK4 level at 0 to 10 uM by Western blot analysis; assay type: functional, cell-based; details: dose 0-10 µM
AGS [12] = experiment: Inhibition of mitochondrial fission in human AGS cells assessed as reduction in ATP content at 0 to 10 uM measured after 24 hrs by microplate reader assay; assay type: functional, cell-based; details: dose 0-10 µM
AGS [13] = experiment: Induction of apoptosis in human AGS cells assessed as early apoptotic cells at 8 uM measured after 24 hrs by AnnexinV-FITC/PI staining based flowcytometry method (reference value: 1.2%); assay type: functional
HGC-27 [14] = experiment: Induction of apoptosis in human HGC-27 cells assessed as early apoptotic cells at 10 uM measured after 24 hrs by AnnexinV-FITC/PI staining based flowcytometry method (reference value: 3.3%); assay type: functional
AGS [15] = experiment: Induction of apoptosis in human AGS cells transfected with pcDNA3.1-Drp1 plasmid to overexpress DRP1 assessed as late apoptotic cells and measured after 24 hrs by AnnexinV-FITC/PI staining based flow cytometry method (reference value: 2.1 %); assay type: functional
AGS [16] = experiment: Induction of apoptosis in human AGS cells transfected with pcDNA3.1-Drp1 plasmid to overexpress DRP1 assessed as early apoptotic cells and measured after 24 hrs by AnnexinV-FITC/PI staining based flow cytometry method (reference value: 2.1 %); assay type: functional
HGC-27 [17] = experiment: Inhibition of mitochondrial fission in human HGC-27 cells assessed as reduction in ATP content at 0 to 10 uM measured after 24 hrs by microplate reader assay; assay type: functional, cell-based; details: dose 0-10 µM
AGS [18] = experiment: Induction of cell cycle arrest in human AGS cells assessed as accumulation of cells at G0/G1 phase at 8 uM incubated for 24 hrs propidium iodide staining-based flow cytometric analysis (reference value: 46.51%); assay type: functional
AGS [19] = experiment: Induction of apoptosis in human AGS cells assessed as increase in cleaved caspase-3 level at 0 to 10 uM by Western blot analysis; assay type: functional, cell-based; details: dose 0-10 µM
[20] = Toxicity in nude mouse xenografted with human AGS cells assessed as effect on liver morphology at 10 to 20 mg/kg, ip administered every other day and monitored every 3 days by Hematoxyin-eosin staining based analysis; assay type: organism-based; details: in vivo, 72 h, dose 10-20 mg/kg, time 3 day
AGS [21] = experiment: Induction of apoptosis in human AGS cells assessed as viable cells at 6 uM measured after 24 hrs by AnnexinV-FITC/PI staining based flowcytometry method (reference value: 95.2%); assay type: functional; details: read-out: Activity
HGC-27 [22] = experiment: Induction of apoptosis in human HGC-27 cells assessed as viable cells at 10 uM measured after 24 hrs by AnnexinV-FITC/PI staining based flowcytometry method (reference value: 91.1%); assay type: functional; details: read-out: Activity
HGC-27 [23] = experiment: Induction of apoptosis in human HGC-27 cells assessed as viable cells at 8 uM measured after 24 hrs by AnnexinV-FITC/PI staining based flowcytometry method (reference value: 91.1%); assay type: functional; details: read-out: Activity
AGS [24] = experiment: Induction of apoptosis in human AGS cells assessed as downregulation of Bcl-2 level at 0 to 10 uM by Western blot analysis; assay type: functional, cell-based; details: dose 0-10 µM
AGS [25] = experiment: Induction of apoptosis in human AGS cells transfected with pcDNA3.1-Drp1 plasmid to overexpress DRP1 assessed as viable cells and measured after 24 hrs by AnnexinV-FITC/PI staining based flow cytometry method (reference value: 95.6 %); assay type: functional
HGC-27 [26] = experiment: Induction of apoptosis in human HGC-27 cells assessed as late apoptotic cells at 6 uM measured after 24 hrs by AnnexinV-FITC/PI staining based flowcytometry method (reference value: 5.4%); assay type: functional
AGS [27] = experiment: Induction of apoptosis in human AGS cells assessed as increase in cleaved caspase-9 level at 0 to 10 uM by Western blot analysis; assay type: functional, cell-based; details: dose 0-10 µM
AGS [28] = experiment: Induction of apoptosis in human AGS cells assessed as viable cells measured after 24 hrs by AnnexinV-FITC/PI staining based flow cytometry method (reference value: 95.4 %); assay type: functional
HGC-27 [29] = experiment: Inhibition of mitochondrial fission in human HGC-27 cells assessed as reduction in mitochondrial elongated fragments at 0 to 6 uM measured after 24 hrs by mitotracker based confocal microscopy; assay type: functional, cell-based; details: dose 0-6 µM
HGC-27 [30] = experiment: Induction of apoptosis in human HGC-27 cells assessed as necrotic cells at 8 uM measured after 24 hrs by AnnexinV-FITC/PI staining based flowcytometry method (reference value: 0.2%); assay type: functional
HGC-27 [31] = experiment: Induction of apoptosis in human HGC-27 cells assessed as early apoptotic cells measured after 24 hrs by AnnexinV-FITC/PI staining based flow cytometry method (reference value: 1.6%); assay type: functional
HGC-27 [32] = experiment: Induction of apoptosis in human HGC-27 cells transfected with pcDNA3.1-Drp1 plasmid to overexpress DRP1 assessed as viable cells measured after 24 hrs by AnnexinV-FITC/PI staining based flow cytometry method (reference value: 95.8%); assay type: functional
HGC-27 [33] = experiment: Inhibition of colony formation of human HGC-27 cells assessed as reduction in colony number at 0 to 10 uM measured after 24 hrs by crystal violet staining assay; assay type: functional, cell-based; details: dose 0-10 µM
Mus musculus = experiment: In vivo inhibition of ERK signalling pathway in nude mouse xenografted with human AGS cells assessed as downregulation of p-ERK levels at 10 to 20 mg/kg, ip administered every other day and monitored every 3 days by western blot analysis; assay type: functional, organism-based; details: dose 10-20 mg/kg, time 3.0 day

IC50 (AGS [10]): 9.86 µM
Structure (SMILES): CC(C)=CCC12Oc3cc(O)ccc3C1(O)Oc1cc(O)c([C@H]3C=C(C)C[C@H](c4ccc(O)cc4O)[C@H]3C(=O)c3ccc(O)cc3O)c(O)c1C2=O (some centres undefined)
Activity (HGC-27 [1]): 62.4%
Activity (AGS [2]): 3.5%
Activity (HGC-27 [3]): 0.4%
Activity (AGS [4]): 0.3%
inhibition (AGS [5]): Active
viability at 6 µM (HGC-27 [6]): 84.2%
Activity (HGC-27 [7]): Active
Activity (AGS [8]): Dde
Activity [9]: Non-Toxic
Activity (HGC-27 [11]): Active
inhibition (AGS [12]): Active
Activity (AGS [13]): 2.1%
Activity (HGC-27 [14]): 10.3%
Activity (AGS [15]): 6.8%
Activity (AGS [16]): 2.8%
inhibition (HGC-27 [17]): Active
Activity (AGS [18]): 54.9%
Activity (AGS [19]): Active
Activity [20]: Non-Toxic
viability at 6 µM (AGS [21]): 90.1%
viability at 10 µM (HGC-27 [22]): 72.4%
viability at 8 µM (HGC-27 [23]): 83.1%
Activity (AGS [24]): Active
Activity (AGS [25]): 90.3%
Activity (HGC-27 [26]): 10%
Activity (AGS [27]): Active
Activity (AGS [28]): 88.8%
inhibition (HGC-27 [29]): Active
Activity (HGC-27 [30]): 1.8%
Activity (HGC-27 [31]): 4.3%
Activity (HGC-27 [32]): 95.4%
inhibition (HGC-27 [33]): Active
inhibition (Mus musculus): Active
